A word on the IC50: it is the concentration at which inhibition is half-maximal. The EC50 is the concentration giving half of the maximal effect. The term AC50 denotes the midpoint of the concentration-response curve, whichever way the signal moves. Usually CC50 stands for the concentration giving 50% cytotoxicity.

Among the targets are Cytochrome P450 3A4 (Homo sapiens, UniProt P08684); Cytochrome P450 2D6 (Homo sapiens, UniProt P10635); Cytochrome P450 2C9 (Homo sapiens, UniProt P11712).
Series [1] concerns the target DNA dC->dU-editing enzyme APOBEC-3A (Homo sapiens, UniProt P31941). As to the kind of experiment: Dose Response confirmation of small molecule APOBEC3A DNA Deaminase Inhibitors via a fluorescence-based single-stranded DNA deaminase assay. [Related pubchem assays (depositor defined):AID493011, AID493024]. In kind it is functional.
Series [2] has as its target DNA dC->dU-editing enzyme APOBEC-3G (Homo sapiens, UniProt Q9HC16). In kind it is functional.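 Further: Dose-response counterscreen measuring inhibition of APOBEC3G DNA deaminase activity, run while confirming APOBEC3A inhibitors.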
Series [3] in a line: A cytotoxicity screen of small molecule inhibitors of the PhoP region in Salmonella typhi identified in the primary screen. [Related pubchem assays: 1850, 1864, 1985 ]. In kind it is functional.
The target of series [4] is T1, Neuropeptide Y receptor type 1 (Homo sapiens, UniProt P25929).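 Further: HEK293 cells with a CNG channel challenged with NPY then isoproterenol; potency as antagonist that reverses NPY suppression of cAMP signal.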
T1 sequence (P25929 whole entry): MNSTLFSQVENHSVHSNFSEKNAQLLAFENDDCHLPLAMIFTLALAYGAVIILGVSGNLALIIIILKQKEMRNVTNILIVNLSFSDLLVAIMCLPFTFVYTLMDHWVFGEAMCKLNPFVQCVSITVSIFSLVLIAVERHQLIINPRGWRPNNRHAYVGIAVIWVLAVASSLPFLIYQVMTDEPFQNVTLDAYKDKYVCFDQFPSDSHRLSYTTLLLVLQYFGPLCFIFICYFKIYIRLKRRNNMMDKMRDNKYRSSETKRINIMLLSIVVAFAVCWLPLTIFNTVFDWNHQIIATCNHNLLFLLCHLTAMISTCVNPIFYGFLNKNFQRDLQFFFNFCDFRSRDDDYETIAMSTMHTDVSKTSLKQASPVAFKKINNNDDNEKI
In kind it is functional.

Series [5] concerns the target T2, Neuropeptide Y receptor type 2 (Homo sapiens, UniProt P49146).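 Further: HEK293 cells expressing the receptor and a CNG channel; stimulus was NPY near EC95 followed by isoproterenol to raise cAMP; antagonist potency measured as restoring cAMP signal that NPY suppresses.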
T2 sequence (P49146 whole entry): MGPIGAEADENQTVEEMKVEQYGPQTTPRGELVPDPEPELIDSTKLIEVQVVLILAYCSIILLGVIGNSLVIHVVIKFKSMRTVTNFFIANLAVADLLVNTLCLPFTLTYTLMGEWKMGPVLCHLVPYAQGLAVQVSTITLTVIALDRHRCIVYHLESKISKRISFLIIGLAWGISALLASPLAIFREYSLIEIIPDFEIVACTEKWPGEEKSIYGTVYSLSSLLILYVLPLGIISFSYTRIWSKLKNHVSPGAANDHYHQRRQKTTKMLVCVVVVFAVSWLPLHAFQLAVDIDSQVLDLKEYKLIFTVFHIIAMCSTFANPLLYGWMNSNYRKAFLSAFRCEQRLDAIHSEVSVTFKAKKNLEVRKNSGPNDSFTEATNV
The format is functional, cell-based.

For series [6], the target named is T3, Estrogen receptor beta (Homo sapiens, UniProt Q92731).
T3 sequence (Q92731 whole entry): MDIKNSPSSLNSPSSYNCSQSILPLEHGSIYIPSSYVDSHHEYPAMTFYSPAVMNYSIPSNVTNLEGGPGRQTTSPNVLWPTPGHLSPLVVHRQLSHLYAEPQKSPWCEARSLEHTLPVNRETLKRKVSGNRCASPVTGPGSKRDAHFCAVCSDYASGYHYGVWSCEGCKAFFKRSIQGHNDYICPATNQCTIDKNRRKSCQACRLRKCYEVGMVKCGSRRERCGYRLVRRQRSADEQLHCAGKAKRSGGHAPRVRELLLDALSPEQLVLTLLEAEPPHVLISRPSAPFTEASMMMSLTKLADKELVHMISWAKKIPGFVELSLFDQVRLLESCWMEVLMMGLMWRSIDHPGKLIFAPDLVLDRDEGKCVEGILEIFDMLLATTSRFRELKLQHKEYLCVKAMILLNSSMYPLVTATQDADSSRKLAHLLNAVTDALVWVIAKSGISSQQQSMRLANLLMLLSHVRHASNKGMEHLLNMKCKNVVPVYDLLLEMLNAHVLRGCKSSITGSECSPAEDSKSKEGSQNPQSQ
For series [7], the target named is T3, Estrogen receptor beta. Nature of the series: ERβ–SRC-3 coactivator interaction inhibitors, confirmation, orthogonal assay, biochemical, ELISA, streptavidin-HRP readout (AID 1060). (An ELISA detects its analyte on a solid surface through an enzyme-linked reagent.)
Series [8] addresses Eukaryotic translation initiation factor 4E (Mus musculus, UniProt P63073). Nature of the series: eIF4E–eIF4G protein interaction inhibitors, dose response, biochemical, TR-FRET (AID 855).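 Further: potency for disrupting eIF4E binding to eIF4GI seen as loss of FRET.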 In kind it is functional. (In general: TR-FRET usually uses a lanthanide donor and a delayed reading to cut background.)
A further series has as its target Cytochrome P450 2C19 (Homo sapiens, UniProt P33261). Nature of the series: Cytochrome panel assay with activity outcomes. Panel member name: p450-cyp2c19 Compounds with AC50 equal or less than 10 uM are considered active. To be noted: read-out: AC50. In kind it is functional.
For series [9], the target named is T4, Acyl-homoserine lactone acylase PvdQ (Pseudomonas aeruginosa (strain LESB58), UniProt Q9I194).
T4 sequence (Q9I194 whole entry): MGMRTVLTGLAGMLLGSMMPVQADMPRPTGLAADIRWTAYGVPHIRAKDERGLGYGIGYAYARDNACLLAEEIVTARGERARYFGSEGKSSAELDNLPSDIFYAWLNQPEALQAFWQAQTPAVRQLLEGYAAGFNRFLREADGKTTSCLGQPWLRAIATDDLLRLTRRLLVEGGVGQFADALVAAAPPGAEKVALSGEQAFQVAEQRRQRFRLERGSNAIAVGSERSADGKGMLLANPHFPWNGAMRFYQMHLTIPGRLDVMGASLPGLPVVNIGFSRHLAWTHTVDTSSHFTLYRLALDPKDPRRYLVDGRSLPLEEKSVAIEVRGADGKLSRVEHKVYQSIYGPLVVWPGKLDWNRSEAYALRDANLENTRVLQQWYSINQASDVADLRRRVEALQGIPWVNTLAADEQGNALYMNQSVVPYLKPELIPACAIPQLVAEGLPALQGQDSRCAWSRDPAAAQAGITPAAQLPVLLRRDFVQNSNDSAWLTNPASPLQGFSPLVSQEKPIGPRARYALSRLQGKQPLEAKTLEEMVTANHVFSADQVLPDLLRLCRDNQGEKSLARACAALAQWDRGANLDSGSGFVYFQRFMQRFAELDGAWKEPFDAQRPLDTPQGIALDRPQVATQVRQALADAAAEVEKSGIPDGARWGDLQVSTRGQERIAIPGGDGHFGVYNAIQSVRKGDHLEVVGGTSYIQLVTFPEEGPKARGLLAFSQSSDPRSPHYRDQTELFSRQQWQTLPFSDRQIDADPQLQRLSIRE
As to the kind of experiment: P. aeruginosa PvdQ acylase inhibitors, dose response, biochemical, fluorescence, plate reader and imaging, cherry-picks (AID 493231).

Series [10] can be described thus: Luminescence Cell-Based Dose Retest to Confirm Inhibitors of Cancer Stem Cells. [Related pubchem assays (depositor defined):AID2717, AID2721]. In kind it is functional. Particulars: Homo sapiens.
The subject of the next series is Vero. Nature of the series: host cell cytotoxicity of antiviral hits, dose response, cytotoxicity control for West Nile virus antiviral project, secondary assay (AID 1650). In kind it is functional. To be noted: Chlorocebus sabaeus.
Series [11] concerns the target T5, Replicative DNA helicase DnaB (Mycobacterium tuberculosis, UniProt P9WMR3).
T5 sequence (P9WMR3 whole entry): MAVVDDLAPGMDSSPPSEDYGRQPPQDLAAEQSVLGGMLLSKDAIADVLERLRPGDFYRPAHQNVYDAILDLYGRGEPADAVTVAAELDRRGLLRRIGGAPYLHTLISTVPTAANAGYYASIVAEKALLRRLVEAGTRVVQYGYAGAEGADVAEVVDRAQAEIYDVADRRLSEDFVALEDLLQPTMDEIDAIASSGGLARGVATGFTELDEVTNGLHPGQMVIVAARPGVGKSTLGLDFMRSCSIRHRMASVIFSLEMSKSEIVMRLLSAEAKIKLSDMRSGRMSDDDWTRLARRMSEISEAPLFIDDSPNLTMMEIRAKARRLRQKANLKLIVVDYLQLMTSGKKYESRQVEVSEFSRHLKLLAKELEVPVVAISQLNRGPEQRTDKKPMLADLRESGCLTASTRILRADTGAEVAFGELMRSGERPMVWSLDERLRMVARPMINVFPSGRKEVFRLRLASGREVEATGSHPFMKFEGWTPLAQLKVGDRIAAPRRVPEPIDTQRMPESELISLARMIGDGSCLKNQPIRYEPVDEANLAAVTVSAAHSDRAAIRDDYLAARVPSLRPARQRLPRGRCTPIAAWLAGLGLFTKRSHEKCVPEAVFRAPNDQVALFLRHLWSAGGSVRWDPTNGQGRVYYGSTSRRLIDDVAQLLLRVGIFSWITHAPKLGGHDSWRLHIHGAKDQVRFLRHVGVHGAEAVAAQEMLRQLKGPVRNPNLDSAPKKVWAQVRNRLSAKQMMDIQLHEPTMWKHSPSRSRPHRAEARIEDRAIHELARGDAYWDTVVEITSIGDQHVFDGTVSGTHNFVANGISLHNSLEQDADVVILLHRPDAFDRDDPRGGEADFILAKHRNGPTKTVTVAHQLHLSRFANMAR
Nature of the series: DnaB intein splicing inhibitors, dose response, biochemical, cell-free fluorescence (AID 449749). In kind it is functional.

A further series concerns the target T6, Protein RecA (Mycobacterium tuberculosis, UniProt P9WHJ3).
T6 sequence (P9WHJ3 whole entry): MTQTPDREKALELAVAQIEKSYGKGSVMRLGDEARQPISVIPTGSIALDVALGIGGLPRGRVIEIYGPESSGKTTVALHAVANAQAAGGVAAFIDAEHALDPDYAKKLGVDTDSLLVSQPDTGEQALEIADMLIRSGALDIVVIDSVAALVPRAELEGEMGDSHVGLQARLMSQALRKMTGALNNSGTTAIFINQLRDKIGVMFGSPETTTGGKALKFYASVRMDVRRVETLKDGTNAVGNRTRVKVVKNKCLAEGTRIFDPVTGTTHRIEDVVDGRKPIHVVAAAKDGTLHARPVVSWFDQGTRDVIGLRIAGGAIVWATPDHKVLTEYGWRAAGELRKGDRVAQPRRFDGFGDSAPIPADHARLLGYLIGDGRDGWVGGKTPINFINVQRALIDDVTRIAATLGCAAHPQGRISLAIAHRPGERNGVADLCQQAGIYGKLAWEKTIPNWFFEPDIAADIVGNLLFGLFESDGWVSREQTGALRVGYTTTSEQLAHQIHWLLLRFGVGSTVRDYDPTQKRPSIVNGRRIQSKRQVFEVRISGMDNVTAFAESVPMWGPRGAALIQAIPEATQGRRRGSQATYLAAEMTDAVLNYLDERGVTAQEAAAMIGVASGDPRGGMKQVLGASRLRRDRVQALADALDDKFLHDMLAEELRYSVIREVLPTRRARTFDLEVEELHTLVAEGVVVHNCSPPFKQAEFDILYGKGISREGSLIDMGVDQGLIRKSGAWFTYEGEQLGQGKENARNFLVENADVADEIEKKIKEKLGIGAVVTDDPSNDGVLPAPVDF
Nature of the series: Fluorescence Cell-Free Homogeneous Dose Retest to Identify Inhibitors of RecA-Intein Splicing Activity. [Related pubchem assays (depositor defined):AID2097, AID2223, AID489010, AID492950]. The format is functional.

The nature of series [12]: THP-1 cell cytotoxicity, dose response, cytotoxicity control for non-replicating M. tuberculosis project (AID 489025). The format is functional.
A short description of a further series: cells. In kind it is functional.

Activity calls are given as the source filed them.

Sequence of DNA dC->dU-editing enzyme APOBEC-3G (Q9HC16 whole entry): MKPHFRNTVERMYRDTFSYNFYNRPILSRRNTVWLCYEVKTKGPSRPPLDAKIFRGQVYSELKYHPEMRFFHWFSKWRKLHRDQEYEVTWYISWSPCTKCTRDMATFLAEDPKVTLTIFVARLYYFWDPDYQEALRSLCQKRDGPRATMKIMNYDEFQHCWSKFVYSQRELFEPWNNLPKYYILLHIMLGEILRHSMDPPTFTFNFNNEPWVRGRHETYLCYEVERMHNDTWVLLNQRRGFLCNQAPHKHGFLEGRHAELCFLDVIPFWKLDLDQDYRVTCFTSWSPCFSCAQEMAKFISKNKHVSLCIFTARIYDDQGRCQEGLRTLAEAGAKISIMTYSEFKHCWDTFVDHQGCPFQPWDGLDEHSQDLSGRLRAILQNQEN
Sequence of Cytochrome P450 3A4 (P08684 whole entry): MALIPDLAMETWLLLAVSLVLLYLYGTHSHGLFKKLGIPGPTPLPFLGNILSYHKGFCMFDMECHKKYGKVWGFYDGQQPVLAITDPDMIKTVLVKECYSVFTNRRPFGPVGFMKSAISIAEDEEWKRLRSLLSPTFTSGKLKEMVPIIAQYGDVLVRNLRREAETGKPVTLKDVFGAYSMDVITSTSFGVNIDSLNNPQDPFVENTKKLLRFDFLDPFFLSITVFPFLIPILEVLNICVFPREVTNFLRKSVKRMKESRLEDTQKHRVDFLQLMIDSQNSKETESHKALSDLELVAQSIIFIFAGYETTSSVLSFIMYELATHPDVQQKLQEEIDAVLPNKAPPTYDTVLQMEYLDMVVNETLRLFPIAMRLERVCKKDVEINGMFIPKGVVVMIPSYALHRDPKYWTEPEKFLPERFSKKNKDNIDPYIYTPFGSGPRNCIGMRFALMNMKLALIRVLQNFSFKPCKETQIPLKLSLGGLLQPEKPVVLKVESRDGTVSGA
Sequence of DNA dC->dU-editing enzyme APOBEC-3A (P31941 whole entry): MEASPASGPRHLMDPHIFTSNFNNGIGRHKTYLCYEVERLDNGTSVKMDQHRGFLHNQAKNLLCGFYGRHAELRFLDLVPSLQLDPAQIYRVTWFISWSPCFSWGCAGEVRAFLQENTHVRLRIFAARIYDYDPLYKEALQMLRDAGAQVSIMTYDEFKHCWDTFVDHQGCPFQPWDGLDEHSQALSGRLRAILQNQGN
Sequence of Cytochrome P450 2D6 (P10635 whole entry): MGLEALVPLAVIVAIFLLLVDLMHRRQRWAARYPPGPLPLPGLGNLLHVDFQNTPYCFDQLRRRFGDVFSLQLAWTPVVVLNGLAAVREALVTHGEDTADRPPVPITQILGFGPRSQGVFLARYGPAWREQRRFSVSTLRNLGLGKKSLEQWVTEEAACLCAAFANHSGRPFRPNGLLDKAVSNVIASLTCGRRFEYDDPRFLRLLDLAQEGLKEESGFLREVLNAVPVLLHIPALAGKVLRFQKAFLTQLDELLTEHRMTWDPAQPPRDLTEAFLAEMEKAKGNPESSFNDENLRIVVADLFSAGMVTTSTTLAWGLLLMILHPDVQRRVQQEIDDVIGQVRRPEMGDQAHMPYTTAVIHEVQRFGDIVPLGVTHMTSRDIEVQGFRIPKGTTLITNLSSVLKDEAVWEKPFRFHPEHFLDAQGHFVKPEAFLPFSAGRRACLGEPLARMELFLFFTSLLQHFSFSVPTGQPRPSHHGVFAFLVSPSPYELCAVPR
Sequence of Cytochrome P450 2C9 (P11712 whole entry): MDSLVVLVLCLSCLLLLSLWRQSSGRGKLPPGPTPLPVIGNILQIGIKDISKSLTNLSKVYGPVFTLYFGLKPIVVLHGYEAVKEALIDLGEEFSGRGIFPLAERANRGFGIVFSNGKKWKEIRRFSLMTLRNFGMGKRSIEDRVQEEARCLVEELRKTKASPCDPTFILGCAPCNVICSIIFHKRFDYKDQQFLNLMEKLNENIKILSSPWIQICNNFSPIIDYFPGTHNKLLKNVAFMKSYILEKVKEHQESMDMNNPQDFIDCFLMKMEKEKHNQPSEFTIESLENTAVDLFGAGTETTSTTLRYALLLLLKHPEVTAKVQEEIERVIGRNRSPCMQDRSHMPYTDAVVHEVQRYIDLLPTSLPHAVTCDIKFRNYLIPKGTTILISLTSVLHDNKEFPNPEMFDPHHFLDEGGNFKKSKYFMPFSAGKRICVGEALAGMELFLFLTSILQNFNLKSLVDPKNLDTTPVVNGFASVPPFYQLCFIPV
Sequence of Eukaryotic translation initiation factor 4E (P63073 whole entry): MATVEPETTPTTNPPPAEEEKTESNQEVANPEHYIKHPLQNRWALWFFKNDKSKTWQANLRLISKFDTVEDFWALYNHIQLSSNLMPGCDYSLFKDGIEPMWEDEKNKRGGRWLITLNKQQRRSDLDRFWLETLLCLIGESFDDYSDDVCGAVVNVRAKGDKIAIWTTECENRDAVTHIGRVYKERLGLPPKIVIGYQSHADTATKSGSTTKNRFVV
Sequence of Cytochrome P450 2C19 (P33261 whole entry): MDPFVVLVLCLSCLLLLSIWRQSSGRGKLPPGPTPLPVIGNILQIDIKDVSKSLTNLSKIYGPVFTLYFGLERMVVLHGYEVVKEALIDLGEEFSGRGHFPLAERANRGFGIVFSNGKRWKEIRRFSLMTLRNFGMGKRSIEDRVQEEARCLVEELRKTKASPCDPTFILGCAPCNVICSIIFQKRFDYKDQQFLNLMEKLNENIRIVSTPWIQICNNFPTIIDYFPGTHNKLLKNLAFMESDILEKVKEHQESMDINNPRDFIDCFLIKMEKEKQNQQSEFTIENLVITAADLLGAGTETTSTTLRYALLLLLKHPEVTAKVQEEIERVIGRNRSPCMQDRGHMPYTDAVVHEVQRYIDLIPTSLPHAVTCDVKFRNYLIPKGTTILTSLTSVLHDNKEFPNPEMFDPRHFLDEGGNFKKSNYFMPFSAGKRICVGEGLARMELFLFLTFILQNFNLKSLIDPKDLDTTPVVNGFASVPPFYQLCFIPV

As for `Cc1ccc2c(c1)C1CN(C)CCC1N2CC(=O)N(C)c1ccccc1` (stereo not given), the values for the IC50 in [1] and in [2] were 5.51 µM (active) and 9.94 µM (active), respectively. On to `COc1ccc2nc(NC(=O)Nc3ccccc3)sc2c1` [FRENTIZOLE], for which, in [3], the EC50 was > 50 µM (active).

Regarding `OCCNC1=NCCN1`, the IC50 was 2.2 µM (active) in series [1] and 1.95 µM (active) in series [2]. On to `CCOc1ccc2nc(NC(=O)CS(=O)(=O)c3ccc(C)cc3)sc2c1`, for which the IC50 in series [4] is reported as > 12 µM (not active); in [5] it was > 35 µM (not active). Turning to `C1=C(N2CCOCC2)/C(=C/c2nc3ccccc3[nH]2)CC1`, the IC50 at Estrogen receptor beta [6] was 23.8 µM (active); on Estrogen receptor beta [7], > 109 µM (not active). In the case of `O=S(=O)(c1ccccc1)N1CCC2(CC1)CN(C(c1ccccc1)c1ccccc1)C2`, the AC50 entry on Cytochrome P450 3A4 is “inconclusive”. `COc1c(Br)cc2c(C)c(C(=O)N3CCOCC3)oc2c1Br`: in [3], the EC50 is > 50 µM (active). For the compound `Cc1ccc2c(Cl)cc(Cl)c(OCC(=O)NCc3ccco3)c2n1`, the results for the IC50 (at Estrogen receptor beta [6]; against Estrogen receptor beta [7]; in [8]) were < 1.56 µM (active), > 50 µM (not active) and 12.5 µM (active), respectively. Turning to `CCOC(=O)N1CCN(C(=O)c2oc3ccc(S(=O)(=O)N4CCCCC4)cc3c2C)CC1`, the AC50 on Cytochrome P450 2C19 was 28.2 µM (inconclusive); on Cytochrome P450 2D6, 20 µM (inconclusive); on Cytochrome P450 3A4, “inconclusive”. Turning to `O=C(CSCc1c(Cl)cccc1Cl)Nc1ccccc1-c1ccccc1`, the IC50 in [4] is 5.69 µM (active); in series [5] it was 6.07 µM (active).

Consider `N#CC1C(C#N)C2CCC1C1C2N1c1ccccc1` (stereo not given), for which, in series [9], the AC50 was 7.8 µM (active). Consider `Clc1ccc(C2=Nn3c(nnc3-c3[nH]nc4c3CCC4)SC2)cc1Cl`, for which the IC50 was 9.8 µM (active) in series [4] and 8.69 µM (active) in series [5]. Turning to `N=C(N)SCCc1ccc(CCSC(=N)N)cc1`, the concentration at half-maximal activity (AC50) is 31.6 µM (inconclusive) on Cytochrome P450 2D6 and “inconclusive” on Cytochrome P450 3A4. Regarding `O=C(NC1CCCC1)c1cc(Cl)ccc1[N+](=O)[O-]`, the half-maximal activity concentration (AC50) in series [9] was 0.948 µM (active). Regarding `CSC1=NC(=O)/C(=C/c2ccc(SC)cc2)S1`, the AC50 in series [9] was 16.2 µM (active). As to `COc1ccccc1N=Nc1[nH]c2ccc(C)cc2c1O`, the IC50 in [1] was 6.59 µM (active); in series [2] it was 6.6 µM (active). The matching figures for `CCN1CCN(c2ccc(S(=O)(=O)N3CCCCC3)cc2NC(=O)/C=C/c2ccc(OC(F)F)cc2)CC1`: 4.28 µM (active) and 7.32 µM (active). Consider `Cc1ccc(/C=N/NC(=O)CSc2nc3ccccc3n2C)s1`, for which the EC50 in series [3] was > 50 µM (active). On Cytochrome P450 2C9, the AC50 result is recorded as “inconclusive”.

As to `Cc1ccc(OCCCCN(C)Cc2ccccc2)c(Br)c1`, the IC50 is 8.33 µM (active) in [4] and 12 µM (not active) in [5]. Besides, the AC50 in series [10] was 9.59 µM (active). As to `CC(=O)O[C@@H]1C[C@H]2C(C)(C)C(=O)C=C[C@]2(C)[C@H]2CC[C@@]3(C)[C@H](c4ccoc4)OC(=O)[C@H]4O[C@]43[C@@]21C` [GEDUNIN], the CC50 in the series on Vero is 22.2 µM (active). In series [11], the AC50 is 4.57 µM (active). At Protein RecA, the EC50 was 16.1 µM (active). For `O=C(Nc1ccccc1)c1cc2ccccc2o1`, the CC50 in series [12] was > 40 µM (active). Also, in “cells”, the IC50 is 6.22 µM (active).

Source of the values: ChEMBL document CHEMBL1201862, “PubChem BioAssay data set” (2004).
